For assay [1], the target named is T1, Adenosine receptor A2a (Homo sapiens, UniProt P29274). Put plainly: Inhibition of human adenosine 2A receptor.
Assay [2] addresses T1, Adenosine receptor A2a. The assay can be described thus: Inhibition of human adenosine 2A receptor at 32 uM.
The target in assay [3] is T1, Adenosine receptor A2a. Put plainly: Inhibition of human adenosine 2A receptor at 2 uM.

T1 sequence (P29274 whole entry): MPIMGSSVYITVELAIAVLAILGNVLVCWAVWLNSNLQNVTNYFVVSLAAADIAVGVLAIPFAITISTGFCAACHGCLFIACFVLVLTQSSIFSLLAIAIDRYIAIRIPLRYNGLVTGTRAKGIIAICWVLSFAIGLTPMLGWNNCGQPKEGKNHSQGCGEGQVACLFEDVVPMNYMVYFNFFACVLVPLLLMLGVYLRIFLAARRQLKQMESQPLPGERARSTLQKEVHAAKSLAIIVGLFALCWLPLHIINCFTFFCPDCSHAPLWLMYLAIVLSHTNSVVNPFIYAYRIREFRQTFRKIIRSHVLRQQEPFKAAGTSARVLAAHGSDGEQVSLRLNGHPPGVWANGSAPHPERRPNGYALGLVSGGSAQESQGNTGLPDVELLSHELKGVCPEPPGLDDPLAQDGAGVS

In general, Ki refers to the equilibrium dissociation constant of an inhibitor or competing ligand from its target. Low values mean tighter binding, high ones weaker binding. Regarding `Cc1ccccc1NC(=O)CSCc1nc(N)nc(Nc2ccccc2C)n1`, the Ki at Adenosine receptor A2a [1] was above 100 µM. Same read-out and setting: to `Nc1c(C(=O)c2ccccc2)oc2ccc(Br)cc12` belongs 2.2 µM. The same measure, in the same setting: to `CC(=O)c1snc(Nc2cc(Cl)ccc2F)c1N` belongs 41 µM; to `Nc1c(C(=O)Nc2ccc(Cl)cc2)sc2ncccc12`, 6.9 µM; to `Cn1c(=O)cc2c3c(c(N)ccc31)C(=O)c1ccccc1-2`, 0.64 µM. As for `Cc1ccc(Nc2nc(N)nc(CN3C(=O)NC4(CCCCC4)C3=O)n2)cc1`, on Adenosine receptor A2a [1], the Ki is 2.8 µM.

As for `Cc1ccc(Nc2nc(N)nc(CSC(C)C(=O)N3CCCCCC3)n2)cc1` (stereo unspecified), at Adenosine receptor A2a [1], the Ki was 33 µM. Compared with the last compound, the Ki is about 12-fold higher.

The compound `CN(C(=O)CSc1nc(N)nn1-c1ccccc1)c1ccccc1` gave a Ki at Adenosine receptor A2a [1] above 100 µM. Regarding `Nc1c(C(=O)Nc2ccccc2F)sc2nc3c(cc12)C(=O)CCC3`, the affinity at Adenosine receptor A2a [1] corresponds to a Ki of 0.3 µM. Still for that read-out and setting: to `Nc1ccc(Cl)c2c1C(=O)c1ccccc1C2=O` belongs 0.25 µM. On the same count and under the same terms, to `Nc1nc(SCCCCC(=O)O)c2[nH]cnc2n1` belongs above 100 µM; to `Cc1cc2oc(N)c(C=O)c(=O)c2cc1C`, above 100 µM.

On Adenosine receptor A2a [1], `CCOC(=O)c1cnc(SCCC(N)=O)nc1N` displayed a Ki above 100 µM.

`Nc1ccc(-c2nc3c(N)cccc3[nH]2)cc1` gave a Ki at Adenosine receptor A2a [1] above 100 µM.

With `CCc1nc2sc(C(=O)c3cccc(Cl)c3)c(N)c2cc1C`, at Adenosine receptor A2a [1], the affinity corresponds to a Ki of 9.1 µM. On the same count and under the same terms, to `Nc1ncnc2sc3c(c12)CCN(C(=O)CN1CSCC1=O)C3` belongs above 100 µM; to `CC(=O)c1ccc(NC(=O)c2sc3nc4c(cc3c2N)CCCC4)cc1`, above 100 µM; to `Cc1cccc(NC2=C(N)C(=O)c3ccccc3C2=O)c1`, 0.8 µM.

Turning to `Nc1c(/C=N/c2ccccc2)ccc2c1C(=O)c1ccccc1C2=O`, the Ki on Adenosine receptor A2a [1] is above 100 µM. On the same count and under the same terms, to `N#CC1=C(NC(=O)CSc2ncc(C#N)c(N)n2)SC2CCCCC12` (stereo unspecified) belongs 6.1 µM. Still for that read-out and setting: to `Nc1cccc2c1C(=O)c1ccccc1C2=O` belongs 3.2 µM; to `COCCOC(=O)c1sc(N)c(C#N)c1C`, 17 µM. With `CCOC(=O)c1cnc(SCC(=O)O)nc1N`, the Ki on Adenosine receptor A2a [1] is above 100 µM. Still for that read-out and setting: to `NC1=C(Nc2cccc(C(F)(F)F)c2)C(=O)c2ccccc2C1=O` belongs 0.56 µM. The same measure, in the same setting: to `CC(Sc1nc(N)c(C(=O)Nc2ccccc2)cc1C#N)C(=O)NCc1ccccc1Cl` (stereo unspecified) belongs above 100 µM. On the same count and under the same terms, to `Cc1ccc2oc(=N)c3c(N)nc(-c4ccc5c(c4)OCO5)cc3c2c1` belongs above 100 µM; to `Cc1ccc(N2C(=O)c3cccc(N)c3C2=O)cc1`, 2.9 µM. In turn, `Nc1c(C(=O)Nc2ccc([N+](=O)[O-])cc2)sc2nc3c(cc12)CCCC3` yielded a Ki at Adenosine receptor A2a [1] of 15 µM.

On to `Cc1ccc(Nc2nc(N)nc(CSCC(=O)NC3CC3)n2)cc1`, for which the Ki at Adenosine receptor A2a [1] is above 100 µM. Consider `N#Cc1c(N)nc2c(C(N)=O)c(Nc3ccccc3)sc2c1-c1ccccc1`, for which the affinity at Adenosine receptor A2a [1] corresponds to a Ki of 0.63 µM. On to `COc1ccc(-n2ccnc2SCC(=O)c2c(N)n(C3CC3)c(=O)[nH]c2=O)cc1`, for which the affinity on Adenosine receptor A2a [1], expressed as Ki, was 25 µM. In turn, `Nc1c(C(=O)Nc2nccs2)sc2nc3c(cc12)C(=O)CCC3` had a Ki on Adenosine receptor A2a [1] of 1 µM. Still for that read-out and setting: to `Nc1c(Sc2ccccc2)cc(Sc2ccccc2)c2c1C(=O)c1ccccc1C2=O` belongs 1.9 µM; to `Nc1c(Nc2ccccc2C(=O)O)c2ccccc2oc1=O`, above 100 µM; to `Nc1nc(CSc2nnc3ccccn23)nc(Nc2ccc(F)cc2)n1`, above 100 µM.

With `Cc1ccc(C(=O)CSc2nc(N)c(C#N)c(-c3cccs3)c2C#N)c(C)c1`, the Ki at Adenosine receptor A2a [1] was above 100 µM. Still for that read-out and setting: to `CCOC(=O)c1cc(-c2ccc(Br)cc2)cc2c(N)sc(Br)c12` belongs above 100 µM; to `CC(=O)Oc1cccc(-c2nc(C(N)=O)c(N)o2)c1`, 36 µM; to `CCCc1ccc2c(N)c(C(=O)c3ccccc3)sc2n1`, 1.3 µM.

On to `CN1CCc2nc3sc(C(=O)Nc4ccc(Cl)cc4)c(N)c3cc2C1`, for which the affinity at Adenosine receptor A2a [1], expressed as Ki, was 2.7 µM.

For `Nc1c(C(=O)Nc2ccc(F)cc2)sc2nc3c(cc12)N1CCC3CC1`, the Ki on Adenosine receptor A2a [1] was above 100 µM. Take `COc1ccc(N)c2c1C(=O)c1ccccc1C2=O`: the affinity on Adenosine receptor A2a [1], expressed as Ki, was 0.53 µM.

Consider `Cc1ccc(Nc2nc(N)nc(CSC(C)C(=O)NCc3ccccc3Cl)n2)cc1` (stereo unspecified), for which the affinity on Adenosine receptor A2a [1], expressed as Ki, was 6 µM.

At Adenosine receptor A2a [1], `Cc1ccc(Nc2nc(N)nc(CSCCO)n2)cc1` came in with a Ki of 17 µM. On the same count and under the same terms, to `Cc1nc2ccccc2cc1C(=O)OCC(=O)c1c(N)n(C)c(=O)[nH]c1=O` belongs above 100 µM. Still for that read-out and setting: to `COc1ccc(Nc2nc(N)nc(CSc3nnc(N)s3)n2)cc1` belongs 14 µM. The term inhibition denotes the share of the control response that was lost under treatment. `N#Cc1c(N)nc2c(oc3ccccc32)c1-c1ccccc1` displayed a Ki at Adenosine receptor A2a [1] of 0.06 µM. At Adenosine receptor A2a [2], this compound displayed an inhibition of 91%. In turn, `Nc1c(C(=O)Nc2ccccc2Cl)sc2ncccc12` registered a Ki on Adenosine receptor A2a [1] above 100 µM.

As to `COC(=O)c1c(N)oc2c(-c3ccc(C)cc3)c3c(C(=O)OC)c(N)oc3cc12`, the Ki at Adenosine receptor A2a [1] was above 100 µM. The compound `Nc1ccc(N)c2c1C(=O)c1ccccc1C2=O` registered a Ki on Adenosine receptor A2a [1] of 0.32 µM. On the same count and under the same terms, to `Nc1c(Oc2ccccc2)ccc2c1C(=O)c1ccccc1C2=O` belongs 1 µM; to `Nc1nc(CSc2nnc(N)s2)nc(Nc2ccc(F)cc2)n1`, 13 µM; to `Nc1ncnc2[nH]c(SCCC(=O)O)nc12`, above 100 µM.

`COc1ccc(Cl)cc1Nc1nc(N)nc(-c2oc3ccccc3c2C)n1`: on Adenosine receptor A2a [1], the affinity corresponds to a Ki of 0.032 µM. On Adenosine receptor A2a [3], this compound displayed an inhibition of 80%.

(Values after ChEMBL document CHEMBL1156885, “Structure-based discovery of novel chemotypes for adenosine A(2A) receptor antagonists” (J Med Chem, 2010).)
